Values after ≈ are worked out from the molar mass of the structure shown.

For one assay, the system named is P388. As to the kind of experiment: Cytotoxicity against mouse P388 cells after 4 days. To be noted: P388, 96 h, read-out: ED50 (the source's name). The class given is functional.
The subject of the next assay is L1210. The assay is described as follows: Cytotoxicity against mouse L1210 cells after 4 days. The assay is classed as functional. The settings on record: L1210, 96 h, read-out: ED50 (the source's name).

Consider `CC1=CC(=O)CC(C)(C)[C@@]1(O)CC(=O)/C(C)=C/C=C/C(C)=C/C=C/C=C(C)/C=C/C=C(\C)C=C=C1C(C)(C)C[C@H](O)C[C@@]1(C)O` [AMAROUCIAXANTHIN A], for which the EC50 came out at 150 µg/mL (≈ 244 µM) in the assay with P388 and 50 µg/mL (≈ 81.3 µM) in the assay with L1210.
Regarding `CC1=CC(=O)CC(C)(C)[C@@]1(O)CC(=O)/C(C)=C/C=C/C(C)=C/C=C/C=C(C)/C=C/C=C(\C)C#CC1=C(C)C[C@@H](O)CC1(C)C` [AMAROUCIAXANTHIN B], the EC50 with P388 was found to be 300 µg/mL (≈ 503 µM); with L1210 it was 100 µg/mL (≈ 168 µM).
`CC1=C(C#C/C(C)=C/C=C/C(C)=C/C=C/C=C(C)/C=C/C=C(\C)C(=O)C[C@@]23O[C@]2(C)C[C@@H](O)CC3(C)C)C(C)(C)C[C@H](O)C1` [HALOCYNTHIAXANTHIN]: the EC50 came to 12.5 µg/mL (≈ 20.9 µM) with P388 and 25 µg/mL (≈ 41.7 µM) with L1210.
